Results taken from US8895756B2, “Bendamustine pharmaceutical compositions” (priority 2005, dated 2014).

Assay: HPLC stability of bendamustine (15 mg/mL, mannitol 25.5 mg/mL) in alcohol/water solutions at 5° C.
Assay type: physicochemical
Settings: 5° C.
Description: A sample of each formulation was analyzed by HPLC after 0, 3, 6 and 24 hours when stored at 5° C.

SMILES: Cl.Cn1c(CCCC(=O)O)nc2cc(N(CCCl)CCCl)ccc21 [bendamustine, 4-{5-[Bis(2-chloroethyl)amino]-1-methyl-2-benzimidazolyl}butyric acid]
- Dimer (%) (1.9% Ethanol, 0 hours): 0.12%
- HP1 (%) (1.9% Ethanol, 0 hours): 0.64%
- Purity (% Area) (1.9% Ethanol, 0 hours): 99.11 % Area
- Dimer (%) (1.9% Ethanol, 3 hours): 0.14%
- HP1 (%) (1.9% Ethanol, 3 hours): 0.90%
- Purity (% Area) (1.9% Ethanol, 3 hours): 98.83 % Area
- Dimer (%) (1.9% Ethanol, 6 hours): 0.15%
- HP1 (%) (1.9% Ethanol, 6 hours): 1.12%
- Purity (% Area) (1.9% Ethanol, 6 hours): 98.60 % Area
- Dimer (%) (1.9% Ethanol, 24 hours): 0.27%
- HP1 (%) (1.9% Ethanol, 24 hours): 3.41%
- Purity (% Area) (1.9% Ethanol, 24 hours): 96.16 % Area
- Dimer (%) (5% Butanol, 0 hours): 0.13%
- HP1 (%) (5% Butanol, 0 hours): 0.49%
- Dimer (%) (5% Butanol, 3 hours): 0.14%
- Dimer (%) (5% Butanol, 6 hours): 0.14%
- HP1 (%) (5% Butanol, 6 hours): 0.91%
- Purity (% Area) (5% Butanol, 6 hours): 98.76 % Area
- Dimer (%) (5% Butanol, 24 hours): 0.21%
- HP1 (%) (5% Butanol, 24 hours): 2.20%
- Purity (% Area) (5% Butanol, 24 hours): 97.46 % Area
- Dimer (%) (5% Ethanol, 0 hours): 0.12%
- HP1 (%) (5% Ethanol, 0 hours): 0.44%
- Purity (% Area) (5% Ethanol, 0 hours): 99.31 % Area
- Dimer (%) (5% Ethanol, 3 hours): 0.13%
- HP1 (%) (5% Ethanol, 3 hours): 0.64%
- Purity (% Area) (5% Ethanol, 3 hours): 99.10 % Area
- Dimer (%) (5% Ethanol, 6 hours): 0.14%
- HP1 (%) (5% Ethanol, 6 hours): 0.86%
- Purity (% Area) (5% Ethanol, 6 hours): 98.87 % Area
- Dimer (%) (5% Ethanol, 24 hours): 0.25%
- HP1 (%) (5% Ethanol, 24 hours): 2.68%
- Purity (% Area) (5% Ethanol, 24 hours): 96.89 % Area
- Dimer (%) (5% Iso-propanol, 0 hours): 0.13%
- HP1 (%) (5% Iso-propanol, 0 hours): 0.48%
- Purity (% Area) (5% Iso-propanol, 0 hours): 99.21 % Area
- Dimer (%) (5% Iso-propanol, 3 hours): 0.14%
- HP1 (%) (5% Iso-propanol, 3 hours): 0.72%
- Purity (% Area) (5% Iso-propanol, 3 hours): 98.65 % Area
- Dimer (%) (5% Iso-propanol, 6 hours): 0.14%
- HP1 (%) (5% Iso-propanol, 6 hours): 1.02%
- Purity (% Area) (5% Iso-propanol, 6 hours): 98.56 % Area
- Dimer (%) (5% Iso-propanol, 24 hours): 0.26%
- HP1 (%) (5% Iso-propanol, 24 hours): 3.35%
- Purity (% Area) (5% Iso-propanol, 24 hours): 96.14 % Area
- Dimer (%) (5% Methanol, 0 hours): 0.12%
- HP1 (%) (5% Methanol, 0 hours): 0.40%
- Purity (% Area) (5% Methanol, 0 hours): 99.35 % Area
- Dimer (%) (5% Methanol, 3 hours): 0.14%
- HP1 (%) (5% Methanol, 3 hours): 0.70%
- Purity (% Area) (5% Methanol, 3 hours): 98.97 % Area
- Dimer (%) (5% Methanol, 6 hours): 0.14%
- HP1 (%) (5% Methanol, 6 hours): 0.95%
- Purity (% Area) (5% Methanol, 6 hours): 98.66 % Area
- Dimer (%) (5% Methanol, 24 hours): 0.23%
- HP1 (%) (5% Methanol, 24 hours): 2.83%
- Purity (% Area) (5% Methanol, 24 hours): 96.65 % Area
- Dimer (%) (5% Tert-butanol, 0 hours): 0.12%
- HP1 (%) (5% Tert-butanol, 0 hours): 0.41%
- Purity (% Area) (5% Tert-butanol, 0 hours): 99.34 % Area
- Dimer (%) (5% Tert-butanol, 3 hours): 0.14%
- HP1 (%) (5% Tert-butanol, 3 hours): 0.64%
- Purity (% Area) (5% Tert-butanol, 3 hours): 99.10 % Area
- Dimer (%) (5% Tert-butanol, 6 hours): 0.13%
- HP1 (%) (5% Tert-butanol, 6 hours): 0.88%
- Purity (% Area) (5% Tert-butanol, 6 hours): 98.85 % Area
- Dimer (%) (5% Tert-butanol, 24 hours): 0.20%
- HP1 (%) (5% Tert-butanol, 24 hours): 2.09%
- Purity (% Area) (5% Tert-butanol, 24 hours): 97.58 % Area
- Dimer (%) (5% n-Propanol, 0 hours): 0.13%
- HP1 (%) (5% n-Propanol, 0 hours): 0.43%
- Purity (% Area) (5% n-Propanol, 0 hours): 99.25 % Area
- Dimer (%) (5% n-Propanol, 3 hours): 0.15%
- HP1 (%) (5% n-Propanol, 3 hours): 0.66%
- Purity (% Area) (5% n-Propanol, 3 hours): 99.00 % Area
- Dimer (%) (5% n-Propanol, 6 hours): 0.16%
- HP1 (%) (5% n-Propanol, 6 hours): 0.94%
- Purity (% Area) (5% n-Propanol, 6 hours): 98.72 % Area
- Dimer (%) (5% n-Propanol, 24 hours): 0.26%
- HP1 (%) (5% n-Propanol, 24 hours): 2.33%
- Purity (% Area) (5% n-Propanol, 24 hours): 97.24 % Area
- Dimer (%) (10% Butanol, 0 hours): 0.11%
- HP1 (%) (10% Butanol, 0 hours): 0.30%
- Purity (% Area) (10% Butanol, 0 hours): 99.44 % Area
- Dimer (%) (10% Butanol, 3 hours): 0.12%
- HP1 (%) (10% Butanol, 3 hours): 0.49%
- Purity (% Area) (10% Butanol, 3 hours): 99.18 % Area
- Dimer (%) (10% Butanol, 6 hours): 0.12%
- HP1 (%) (10% Butanol, 6 hours): 0.64%
- Purity (% Area) (10% Butanol, 6 hours): 99.03 % Area
- Dimer (%) (10% Butanol, 24 hours): 0.17%
- HP1 (%) (10% Butanol, 24 hours): 1.55%
- Purity (% Area) (10% Butanol, 24 hours): 98.13 % Area
- Dimer (%) (10% Ethanol, 0 hours): 0.11%
- HP1 (%) (10% Ethanol, 0 hours): 0.33%
- Purity (% Area) (10% Ethanol, 0 hours): 99.44 % Area
- Dimer (%) (10% Ethanol, 3 hours): 0.12%
- HP1 (%) (10% Ethanol, 3 hours): 0.48%
- Purity (% Area) (10% Ethanol, 3 hours): 99.28 % Area
- Dimer (%) (10% Ethanol, 6 hours): 0.12%
- HP1 (%) (10% Ethanol, 6 hours): 0.65%
- Purity (% Area) (10% Ethanol, 6 hours): 99.10 % Area
- Dimer (%) (10% Ethanol, 24 hours): 0.18%
- HP1 (%) (10% Ethanol, 24 hours): 1.57%
- Purity (% Area) (10% Ethanol, 24 hours): 98.03 % Area
- Dimer (%) (10% Iso-propanol, 0 hours): 0.12%
- HP1 (%) (10% Iso-propanol, 0 hours): 0.37%
- Purity (% Area) (10% Iso-propanol, 0 hours): 99.32 % Area
- Dimer (%) (10% Iso-propanol, 3 hours): 0.14%
- HP1 (%) (10% Iso-propanol, 3 hours): 0.55%
- Purity (% Area) (10% Iso-propanol, 3 hours): 99.11 % Area
- Dimer (%) (10% Iso-propanol, 6 hours): 0.16%
- HP1 (%) (10% Iso-propanol, 6 hours): 0.75%
- Purity (% Area) (10% Iso-propanol, 6 hours): 98.85 % Area
- Dimer (%) (10% Iso-propanol, 24 hours): 0.21%
- HP1 (%) (10% Iso-propanol, 24 hours): 1.92%
- Purity (% Area) (10% Iso-propanol, 24 hours): 97.68 % Area
- Dimer (%) (10% Methanol, 0 hours): 0.11%
- HP1 (%) (10% Methanol, 0 hours): 0.34%
- Purity (% Area) (10% Methanol, 0 hours): 99.42 % Area
- Dimer (%) (10% Methanol, 3 hours): 0.12%
- HP1 (%) (10% Methanol, 3 hours): 0.59%
- Purity (% Area) (10% Methanol, 3 hours): 99.01 % Area
- Dimer (%) (10% Methanol, 6 hours): 0.12%
- HP1 (%) (10% Methanol, 6 hours): 0.80%
- Purity (% Area) (10% Methanol, 6 hours): 98.86 % Area
- Dimer (%) (10% Methanol, 24 hours): 0.18%
- HP1 (%) (10% Methanol, 24 hours): 1.85%
- Purity (% Area) (10% Methanol, 24 hours): 97.65 % Area
- Dimer (%) (10% Tert-butanol, 0 hours): 0.11%
- HP1 (%) (10% Tert-butanol, 0 hours): 0.30%
- Purity (% Area) (10% Tert-butanol, 0 hours): 99.46 % Area
- Dimer (%) (10% Tert-butanol, 3 hours): 0.12%
- HP1 (%) (10% Tert-butanol, 3 hours): 0.48%
- Purity (% Area) (10% Tert-butanol, 3 hours): 99.26 % Area
- Dimer (%) (10% Tert-butanol, 6 hours): 0.13%
- HP1 (%) (10% Tert-butanol, 6 hours): 0.69%
- Purity (% Area) (10% Tert-butanol, 6 hours): 99.05 % Area
- Dimer (%) (10% Tert-butanol, 24 hours): 0.19%
- HP1 (%) (10% Tert-butanol, 24 hours): 1.64%
- Purity (% Area) (10% Tert-butanol, 24 hours): 98.04 % Area
- Dimer (%) (10% n-Propanol, 0 hours): 0.15%
- HP1 (%) (10% n-Propanol, 0 hours): 0.33%
- Purity (% Area) (10% n-Propanol, 0 hours): 99.34 % Area
- Dimer (%) (10% n-Propanol, 3 hours): 0.14%
- HP1 (%) (10% n-Propanol, 3 hours): 0.48%
- Purity (% Area) (10% n-Propanol, 3 hours): 99.17 % Area
- Dimer (%) (10% n-Propanol, 6 hours): 0.16%
